Test results as given in patent US20210045385A1, “PYRIDAZINONE-SUBSTITUTED KETOXIMES AS HERBICIDES” (FMC Corporation, priority 2018, published 2021).

How the values were obtained:
Type in all cases: in vivo
[1] = system: Italian ryegrass (Lolium mutiflorum); test: Test C preemergence, visual plant response rating
Excerpt: (§1) Seeds of plant species selected from barnyardgrass (Echinochloa crus-galli), kochia (Bassia scoparia), ragweed (common ragweed, Ambrosia artemisiifolia), Italian ryegrass (Lolium mutiflorum), foxtail, giant (giant foxtail, Setaria faberi), foxtail, green (green foxtail, Setaria viridis), and pigweed (Amaranthus retroflexus) were planted into a blend of loam soil and sand and treated preemergence with a directed soil spray using test chemicals formulated in anon-phytotoxic solvent mixture which included a surfactant.
(§2) At the same time, plants selected from these weed species and also wheat (Triticum aestivum), corn (Zea mays), blackgrass (Alopecurus myosuroides), and galium (catchweed bedstraw, Galium aparine) were planted in pots containing the same blend of loam soil and sand and treated with post emergence applications of test chemicals formulated in the same manner. Plants ranged in height from 2 to 10 cm and were in the one- to two-leaf stage for the postemergence treatment. Treated plants and untreated controls were maintained in a greenhouse for approximately 10 d, after which time all treated plants were compared to untreated controls and visually evaluated for injury. Plant response ratings, summarized in Table C, are based on a 0 to 100 scale where 0 is no effect and 100 is complete control. A dash (-)response means no test result.

[2] = system: barnyardgrass (Echinochloa crus-galli); test: Test C preemergence, visual plant response rating
Excerpt: as §1, §2

[3] = system: foxtail, giant (giant foxtail, Setaria faberi); test: Test C preemergence, visual plant response rating
Excerpt: as §1, §2

kochia (Bassia scoparia) [4] = test: Test C preemergence, visual plant response rating
Excerpt: as §1, §2

[5] = system: pigweed (Amaranthus retroflexus); test: Test C preemergence, visual plant response rating
Excerpt: as §1, §2

[6] = system: Italian ryegrass (Lolium mutiflorum); test: Test C postemergence, visual plant response rating
Excerpt: as §1, §2

[7] = system: barnyardgrass (Echinochloa crus-galli); test: Test C postemergence, visual plant response rating
Excerpt: as §1, §2

[8] = system: blackgrass (Alopecurus myosuroides); test: Test C postemergence, visual plant response rating
Excerpt: as §1, §2

corn (Zea mays) = test: Test C postemergence, visual plant response rating
Excerpt: as §1, §2

[9] = system: foxtail, giant (giant foxtail, Setaria faberi); test: Test C postemergence, visual plant response rating
Excerpt: as §1, §2

[10] = system: galium (catchweed bedstraw, Galium aparine); test: Test C postemergence, visual plant response rating
Excerpt: as §1, §2

kochia (Bassia scoparia) [11] = test: Test C postemergence, visual plant response rating
Excerpt: as §1, §2

[12] = system: pigweed (Amaranthus retroflexus); test: Test C postemergence, visual plant response rating
Excerpt: as §1, §2

[13] = system: ragweed (common ragweed, Ambrosia artemisiifolia); test: Test C postemergence, visual plant response rating
Excerpt: as §1, §2

[14] = system: wheat (Triticum aestivum); test: Test C postemergence, visual plant response rating
Excerpt: as §1, §2

[15] = system: barnyardgrass (Echinochloa crus-galli); test: Test D flooded paddy test, visual plant response rating; settings: 250 g ai/ha, scale 0 to 100 (0 no effect, 100 complete control), 13 to 15 d
Experimental: (§3) Plant species in the flooded paddy test selected from rice (Oryza sativa), sedge umbrella (small-flower umbrella sedge, Cyperus difformis) duck salad (Heteranthera limosa), and barnyardgrass (Echinochloa crus-galli) were grown to the 2-leaf stage for testing. At time of treatment, test pots were flooded to 3 cm above the soil surface, treated by application of test compounds directly to the paddy water, and then maintained at that water depth for the duration of the test. Treated plants and controls were maintained in a greenhouse for 13 to 15 d, after which time all species were compared to controls and visually evaluated. Plant response ratings, summarized in Table D, are based on a scale of 0 to 100 where 0 is no effect and 100 is complete control. A dash (-) response means no test result.

[16] = system: duck salad (Heteranthera limosa); test: as above; settings: 250 g ai/ha, scale 0 to 100 (0 no effect, 100 complete control), 13 to 15 d
Experimental: as §3

rice (Oryza sativa) = test: as above; settings: 250 g ai/ha, scale 0 to 100 (0 no effect, 100 complete control), 13 to 15 d
Experimental: as §3

[17] = system: sedge umbrella (small-flower umbrella sedge, Cyperus difformis); test: as above; settings: 250 g ai/ha, scale 0 to 100 (0 no effect, 100 complete control), 13 to 15 d
Experimental: as §3

[18] = Test C, 31 g ai/ha, 0 is no effect, 100 is complete control
[19] = Test C, 125 g ai/ha, 0 is no effect, 100 is complete control
[20] = Test C, postemergence, 125 g ai/ha

| Compound | Ryegrass, Italian plant response rating (0 to 100 scale) [1, 18] | Barnyardgrass plant response rating (0 to 100 scale) [2, 18] | Foxtail, Giant plant response rating (0 to 100 scale) [3, 18] | Kochia plant response rating (0 to 100 scale) (kochia (Bassia scoparia) [4]; [18]) | Pigweed plant response rating (0 to 100 scale) [5, 18] | Ryegrass, Italian plant response rating (0 to 100 scale) ([6]; Postemergence, 31 g ai/ha) | Ryegrass, Italian plant response rating (0 to 100 scale) [6, 20] | Barnyardgrass plant response rating (0 to 100 scale) ([7]; Postemergence, 31 g ai/ha) | Barnyardgrass plant response rating (0 to 100 scale) [7, 20] | Blackgrass plant response rating (0 to 100 scale) ([8]; Postemergence, 31 g ai/ha) | Blackgrass plant response rating (0 to 100 scale) [8, 20] | Corn plant response rating (0 to 100 scale) (corn (Zea mays); Postemergence, 31 g ai/ha) | Corn plant response rating (0 to 100 scale) (corn (Zea mays); [20]) | Foxtail, Giant plant response rating (0 to 100 scale) ([9]; Postemergence, 31 g ai/ha) | Foxtail, Giant plant response rating (0 to 100 scale) [9, 20] | Galium plant response rating (0 to 100 scale) ([10]; Postemergence, 31 g ai/ha) | Galium plant response rating (0 to 100 scale) [10, 20] | Kochia plant response rating (0 to 100 scale) (kochia (Bassia scoparia) [11]; Postemergence, 31 g ai/ha) | Kochia plant response rating (0 to 100 scale) (kochia (Bassia scoparia) [11]; [20]) | Pigweed plant response rating (0 to 100 scale) ([12]; Postemergence, 31 g ai/ha) | other results |
| --- | --- | --- | --- | --- | --- | --- | --- | --- | --- | --- | --- | --- | --- | --- | --- | --- | --- | --- | --- | --- | --- |
| CC(C)O/N=C(\c1c(O)c(Cl)nn(C)c1=O)c1cc(Br)cc2ccccc12 [Compound 233] | 0 | 90 | 60 | 0 | 90 | 0 | 0 | 40 | 60 | 0 | 30 | 0 | 10 | 30 | 80 | 60 | 90 | 0 | 10 | 60 | Ryegrass, Italian plant response rating (0 to 100 scale) [1, 19]: 0; Barnyardgrass plant response rating (0 to 100 scale) [2, 19]: 100; Foxtail, Giant plant response rating (0 to 100 scale) [3, 19]: 100; Kochia plant response rating (0 to 100 scale) (kochia (Bassia scoparia) [4]; [19]): 0; Pigweed plant response rating (0 to 100 scale) [5, 19]: 90; Pigweed plant response rating (0 to 100 scale) [12, 20]: 90; Ragweed plant response rating (0 to 100 scale) ([13]; Postemergence, 31 g ai/ha): 100; Ragweed plant response rating (0 to 100 scale) [13, 20]: 100; Wheat plant response rating (0 to 100 scale) ([14]; Postemergence, 31 g ai/ha): 0; Wheat plant response rating (0 to 100 scale) [14, 20]: 0; Plant response rating, Barnyardgrass (Flood) [15]: 30; Plant response rating, Ducksalad (Flood) [16]: 0; Plant response rating, Rice (Flood) (rice (Oryza sativa)): 0; Plant response rating, Sedge, Umbrella (Flood) [17]: 85 |
| CO/N=C(\c1c(O)c(Cl)nn(C)c1=O)c1cc(Br)cc2ccccc12 [Compound 250] | 0 | 70 | 40 | 0 | 10 | 0 | 0 | 50 | 80 | 10 | 30 | 0 | 10 | 20 | 80 | 90 | 100 | 40 | 60 | 50 | Ryegrass, Italian plant response rating (0 to 100 scale) [1, 19]: 0; Barnyardgrass plant response rating (0 to 100 scale) [2, 19]: 80; Foxtail, Giant plant response rating (0 to 100 scale) [3, 19]: 80; Kochia plant response rating (0 to 100 scale) (kochia (Bassia scoparia) [4]; [19]): 80; Pigweed plant response rating (0 to 100 scale) [5, 19]: 70; Pigweed plant response rating (0 to 100 scale) [12, 20]: 70; Ragweed plant response rating (0 to 100 scale) ([13]; Postemergence, 31 g ai/ha): 100; Ragweed plant response rating (0 to 100 scale) [13, 20]: 100; Wheat plant response rating (0 to 100 scale) ([14]; Postemergence, 31 g ai/ha): 0; Wheat plant response rating (0 to 100 scale) [14, 20]: 0; Plant response rating, Barnyardgrass (Flood) [15]: 25; Plant response rating, Ducksalad (Flood) [16]: 85; Plant response rating, Rice (Flood) (rice (Oryza sativa)): 10; Plant response rating, Sedge, Umbrella (Flood) [17]: 70 |
| CCCCO/N=C(\c1cc(Cl)cc(Cl)c1Cl)c1c(O)c(C)nn(C)c1=O [Compound 183] | 0 | 0 | 40 | 0 | 0 | 40 | 60 | 0 | 40 | 0 | 0 | 0 | 0 | 30 | 80 | 10 | 30 | 0 | 10 | 0 | Ryegrass, Italian plant response rating (0 to 100 scale) ([1]; 125 g ai/ha): 80; Barnyardgrass plant response rating (0 to 100 scale) ([2]; 125 g ai/ha): 70; Foxtail, Giant plant response rating (0 to 100 scale) ([3]; 125 g ai/ha): 100; Kochia plant response rating (0 to 100 scale) (kochia (Bassia scoparia) [4]; 125 g ai/ha): 0; Pigweed plant response rating (0 to 100 scale) ([5]; 125 g ai/ha): 10; Pigweed plant response rating (0 to 100 scale) [12, 20]: 10; Ragweed plant response rating (0 to 100 scale) ([13]; Postemergence, 31 g ai/ha): 20; Ragweed plant response rating (0 to 100 scale) [13, 20]: 100; Wheat plant response rating (0 to 100 scale) ([14]; Postemergence, 31 g ai/ha): 0; Wheat plant response rating (0 to 100 scale) [14, 20]: 0; Plant response rating, Barnyardgrass (Flood) [15]: 0; Plant response rating, Ducksalad (Flood) [16]: 0; Plant response rating, Rice (Flood) (rice (Oryza sativa)): 0; Plant response rating, Sedge, Umbrella (Flood) [17]: 0 |
| C#CCO/N=C(/c1c(O)c(Cl)nn(C)c1=O)c1ccc(F)c2ccccc12 [Compound 205] | 20 | 70 | 80 | 0 | 80 | 70 | 100 | 70 | 90 | 20 | 80 | 0 | 40 | 80 | 100 | 80 | 90 | 60 | 70 | 90 | Ryegrass, Italian plant response rating (0 to 100 scale) [1, 19]: 100; Barnyardgrass plant response rating (0 to 100 scale) [2, 19]: 100; Foxtail, Giant plant response rating (0 to 100 scale) [3, 19]: 100; Kochia plant response rating (0 to 100 scale) (kochia (Bassia scoparia) [4]; [19]): 70; Pigweed plant response rating (0 to 100 scale) [5, 19]: 100; Pigweed plant response rating (0 to 100 scale) [12, 20]: 100; Ragweed plant response rating (0 to 100 scale) ([13]; Postemergence, 31 g ai/ha): 100; Ragweed plant response rating (0 to 100 scale) [13, 20]: 100; Wheat plant response rating (0 to 100 scale) ([14]; Postemergence, 31 g ai/ha): 20; Wheat plant response rating (0 to 100 scale) [14, 20]: 70; Plant response rating, Barnyardgrass (Flood) [15]: 0; Plant response rating, Ducksalad (Flood) [16]: 0; Plant response rating, Rice (Flood) (rice (Oryza sativa)): 0; Plant response rating, Sedge, Umbrella (Flood) [17]: 0 |
